Source: US20240174690A1, “ANNULATED 2-AMINO-3-CYANO THIOPHENES AND DERIVATIVES FOR THE TREATMENT OF CANCER” (BOEHRINGER INGELHEIM INTERNATIONAL GMBH, priority 2021, published 2024)

What was measured:
[1] = tested on: KRAS G12C-dependent Ba/F3 cells; assay: Ba/F3 proliferation assay, KRAS G12C; type: cell-based; conditions: Mus musculus, BaF3, 72 h, AlamarBlue
Method in brief: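 IL-3-independent Ba/F3 lines driven by transduced KRAS G12C, G12D or G12V, with puromycin withdrawn about ten days before testing. Viability after compound treatment measured by AlamarBlue fluorescence in duplicate, and values derived by curve fitting.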

[2] = Caco-2 assay (permeability PappAB, PappBA, efflux ratio); type: in vitro ADME; conditions: human, Caco-2, 10 μM test compound, pH 7.4; for Papp A→B at 90 min, 10 μM: apical to basolateral; for efflux ratio at 90 min, 10 μM: efflux ratio PappBA/PappAB, read-out: Caco ER
Method in brief: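 Bidirectional permeability (apical-to-basolateral and reverse) through polarized Caco-2 monolayers, BSA 0.25% on each side, 37 °C. Donor and receiver sampled at 0-90 min after 25-30 min preincubation, analysed by HPLC/MS/MS. Apparent permeabilities derived from transfer rate normalised to area and t=0 donor concentration; ER taken as PappBA over PappAB.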

Structure (SMILES) | IC50 [1] | Papp A→B at 90 min, 10 μM [2] | efflux ratio at 90 min, 10 μM [2]
C[C@H](Oc1cc(-n2cc(C(=O)N(C)C)nn2)nc(-c2noc3c2CCC[C@@]32CCCc3sc(N)c(C#N)c32)n1)[C@@H]1CCCN1C [II-132] | 10 nM | 6.8 ×10⁻⁶ cm/s | 4.9
C[C@H](O)Cn1ncc(-c2cc(O[C@@H](C)[C@@H]3CCCN3C)nc(-c3noc4c3CCC[C@@]43CCCc4sc(N)c(C#N)c43)n2)n1 [II-134] | 41 nM | 4 ×10⁻⁶ cm/s | 8
C[C@H](Oc1cc(-n2cc3c(n2)CCN(C)C3)nc(-c2noc3c2CCC[C@@]32CCCc3sc(N)c(C#N)c32)n1)[C@@H]1CCCN1C [II-141] | 134 nM | – | 7.9
C[C@H](Oc1cc(N2CCOC2=O)nc(-c2noc3c2CCC[C@@]32CCCc3sc(N)c(C#N)c32)n1)[C@@H]1CCCN1C [II-143] | 5 nM | 4.5 ×10⁻⁶ cm/s | 7.3
C[C@H](Oc1cc(-c2ccn(C)n2)nc(-c2noc3c2CCC[C@@]32CCCc3sc(N)c(C#N)c32)n1)[C@@H]1C[C@H](F)CN1C [II-144] | 2 nM | 15 ×10⁻⁶ cm/s | 0.7
C[C@H](Oc1cc(N2CCN(C)C3(COC3)C2)nc(-c2noc3c2CCC[C@@]32CCCc3sc(N)c(C#N)c32)n1)[C@@H]1C[C@@H](F)CN1C [II-148] | 99 nM | 12 ×10⁻⁶ cm/s | 3.3
C[C@H](Oc1cc(N2CCN(C)C3(CC3)C2)nc(-c2noc3c2CCC[C@@]32CCCc3sc(N)c(C#N)c32)n1)[C@@H]1C[C@@H](F)CN1C [II-149] | 333 nM | – | 1.2
C[C@H](Oc1cc(N2CCNC3(COC3)C2)nc(-c2noc3c2CCC[C@@]32CCCc3sc(N)c(C#N)c32)n1)[C@@H]1C[C@@H](F)CN1C [II-150] | 55 nM | 2.5 ×10⁻⁶ cm/s | 11.6
C[C@H](Oc1cc(N2CCN(C)C3(CCOC3)C2)nc(-c2noc3c2CCC[C@@]32CCCc3sc(N)c(C#N)c32)n1)[C@@H]1C[C@@H](F)CN1C (stereo partly shown) [II-151] | 393 nM | – | 2
CO[C@@H]1C[C@@H]([C@H](C)Oc2cc(N3CCN(C)C4(CC4)C3)nc(-c3noc4c3CCC[C@@]43CCCc4sc(N)c(C#N)c43)n2)N(C)C1 [II-152] | 1290 nM | 3.1 ×10⁻⁶ cm/s | 16.8
CO[C@@H]1C[C@@H]([C@H](C)Oc2cc(N3CCN(C)C4(COC4)C3)nc(-c3noc4c3CCC[C@@]43CCCc4sc(N)c(C#N)c43)n2)N(C)C1 [II-153] | 1560 nM | 1.2 ×10⁻⁶ cm/s | 30
C[C@H](Oc1nc(-c2noc3c2CCC[C@@]32CCCc3sc(N)c(C#N)c32)nc(N2CCNC3(CC3)C2)c1F)[C@@H]1C[C@@H](F)CN1C [II-155] | 169 nM | – | 2.9
C[C@H](Oc1nc(-c2noc3c2CCC[C@@]32CCCc3sc(N)c(C#N)c32)nc(N2CCNC3(CC3)C2)c1Cl)[C@@H]1C[C@@H](F)CN1C [II-156] | 353 nM | – | 1.8
C[C@H](Oc1nc(-c2noc3c2CCC[C@@]32CCCc3sc(N)c(C#N)c32)nc(N2C[C@H](C)NC3(CC3)C2)c1F)[C@@H]1C[C@@H](F)CN1C [II-157] | 244 nM | – | 0.7
C[C@@H]1CN(c2nc(-c3noc4c3CCC[C@@]43CCCc4sc(N)c(C#N)c43)nc(O[C@@H](C)[C@@H]3C[C@@H](F)CN3C)c2F)CC2(CC2)N1 [II-158] | 135 nM | – | 0.4
C[C@@H]1CN(c2cc(O[C@@H](C)[C@@H]3CCCN3C)nc(-c3noc4c3CCC[C@@]43CCCc4sc(N)c(C#N)c43)n2)CCN1 [II-161] | 910 nM | 0.4 ×10⁻⁶ cm/s | 47.6

Structure (SMILES) | IC50 [1] | Papp A→B at 90 min, 10 μM [2] | efflux ratio at 90 min, 10 μM [2]
C[C@H](Oc1cc(N2CCN[C@@H](C)C2)nc(-c2noc3c2CCC[C@@]32CCCc3sc(N)c(C#N)c32)n1)[C@@H]1CCCN1C [II-162] | 526 nM | 0.3 ×10⁻⁶ cm/s | 57.6
C[C@H](Oc1cc(C2=CCNCC2)nc(-c2noc3c2CCC[C@@]32CCCc3sc(N)c(C#N)c32)n1)[C@@H]1CCCN1C [II-164] | 240 nM | 0.1 ×10⁻⁶ cm/s | 138
C[C@H](Oc1cc(N2CCNC3(CC3)C2)nc(-c2noc3c2CCC[C@@]32CCCc3sc(N)c(C#N)c32)n1)[C@@H]1C[C@@H](F)CN1C [II-165] | 109 nM | – | 2.5
C[C@H](Oc1cc(N2C[C@@H]3[C@@H](N)[C@@H]3C2)nc(-c2noc3c2CCC[C@@]32CCCc3sc(N)c(C#N)c32)n1)[C@@H]1CCCN1C [II-167] | 884 nM | 0.3 ×10⁻⁶ cm/s | 82.1
C[C@H](Oc1cc(-n2cc3c(n2)CNC3)nc(-c2noc3c2CCC[C@@]32CCCc3sc(N)c(C#N)c32)n1)[C@@H]1CCCN1C [II-168] | 62 nM | 1 ×10⁻⁶ cm/s | 39.5
CC(C)N1CCCN(c2cc(-n3ccnc3)nc(-c3noc4c3CCC[C@@]43CCCc4sc(N)c(C#N)c43)n2)[C@@H](C)C1 [II-169] | 107 nM | – | 9.6
CC(C)N1CCCN(c2cc(-c3ccn(C)n3)nc(-c3noc4c3CCC[C@@]43CCCc4sc(N)c(C#N)c43)n2)[C@@H](C)C1 [II-170] | 26 nM | 3.3 ×10⁻⁶ cm/s | 7
C[C@H](Oc1cc(N2CCN(C)C3(CC3)C2)nc(-c2noc3c2CCC[C@@]32CCCc3sc(N)c(C#N)c32)n1)[C@@H]1CCCN1C [II-171] | 232 nM | 3 ×10⁻⁶ cm/s | 8.2
C[C@H](Oc1cc(N2C[C@H](C)N(C)[C@@H](C)C2)nc(-c2noc3c2CCC[C@@]32CCCc3sc(N)c(C#N)c32)n1)[C@@H]1CCCN1C [II-173] | 296 nM | 8.7 ×10⁻⁶ cm/s | 19.9
C[C@H](Oc1cc(-n2cc3c(n2)CN(C)C3)nc(-c2noc3c2CCC[C@@]32CCCc3sc(N)c(C#N)c32)n1)[C@@H]1CCCN1C [II-174] | 103 nM | – | 5.8
CC(C)NC(=O)Cc1ccn(-c2cc(O[C@@H](C)[C@@H]3CCCN3C)nc(-c3noc4c3CCC[C@@]43CCCc4sc(N)c(C#N)c43)n2)n1 [II-182] | 5 nM | 7.1 ×10⁻⁶ cm/s | 5.5
CO[C@H]1CCN(C)[C@@H]1[C@H](C)Oc1cc(N2CCNC3(CC3)C2)nc(-c2noc3c2CCC[C@@]32CCCc3sc(N)c(C#N)c32)n1 [II-184] | 98 nM | – | 2.3
CO[C@H]1CCN(C)[C@@H]1[C@H](C)Oc1cc(N2CCN(C)C3(CC3)C2)nc(-c2noc3c2CCC[C@@]32CCCc3sc(N)c(C#N)c32)n1 [II-186] | 192 nM | 21 ×10⁻⁶ cm/s | 0.8
CO[C@@H]1C[C@@H]([C@H](C)Oc2cc(N3CCNC4(CC4)C3)nc(-c3noc4c3CCC[C@@]43CCCc4sc(N)c(C#N)c43)n2)N(C)C1 [II-187] | 133 nM | 5.4 ×10⁻⁶ cm/s | 4.6
C[C@H](Oc1cc(-n2ccc(C3(O)COC3)n2)nc(-c2noc3c2CCC[C@@]32CCCc3sc(N)c(C#N)c32)n1)[C@@H]1CCCN1C [II-189] | 9 nM | 7.9 ×10⁻⁶ cm/s | 5.8
